Test results: DBAASP
Converted amounts (≈) assume the structure as drawn.

Legend:
Assay in all cases: ≥ marks a high value that may be exact or a test limit, other limits are often not marked, values filed in µg/mL are converted to µM
[1] = system: Candida albicans ATCC 2002
[2] = system: Escherichia coli ATCC 25922
[3] = system: Pseudomonas aeruginosa CMCCB 10104
[4] = system: Staphylococcus aureus ATCC 25923
[5] = system: Micrococcus luteus ATCC 9341
Bacillus subtilis = system: Bacillus subtilis
Escherichia coli ML-35p = system: Escherichia coli ML-35p
[6] = system: Pseudomonas aeruginosa ATCC 27853
[7] = system: Pseudomonas aeruginosa PAO1
[8] = system: Staphylococcus aureus ATCC 2592
[9] = system: Staphylococcus aureus ATCC 43300
[10] = system: Escherichia coli ATCC 25726

Row | Compound | MIC [1] [µM] | MIC [4] [µM] | MIC [5] [µM] | MIC [10] [µM] | further results
1 | CC[C@H](C)[C@H](NC(=O)[C@H](CC(N)=O)NC(=O)[C@@H](NC(=O)[C@H](C)N)[C@@H](C)O)C(=O)N1CCC[C@H]1C(=O)N[C@@H](Cc1ccccc1)C(=O)N[C@@H](CCCCN)C(=O)N[C@H](C(=O)N[C@@H](Cc1cnc[nH]1)C(=O)N[C@@H](Cc1ccccc1)C(=O)N[C@@H](CCCN=C(N)N)C(=O)N[C@H]1CSSC[C@@H](C(=O)O)NC(=O)[C@H](Cc2ccccc2)NC(=O)[C@H](C)NC(=O)[C@H](C)NC(=O)[C@H](CCCCN)NC1=O)C(C)C [ATNIPFKVHFRCKAAFC] | 24.1 (≈ 47 µg/mL) | > 24.1 |  |  | MIC [2]: 12 µM (≈ 23.5 µg/mL); MIC [3]: 24.1 µM (≈ 47 µg/mL)
2 | CC[C@H](C)[C@H](N)C(=O)N[C@@H](CC(C)C)C(=O)N1CCC[C@H]1C(=O)N[C@@H](Cc1c[nH]c2ccccc12)C(=O)N[C@@H](CC(=O)O)C(=O)N[C@@H](Cc1c[nH]c2ccccc12)C(=O)N1CCC[C@H]1C(=O)N[C@@H](Cc1c[nH]c2ccccc12)C(=O)N[C@@H](Cc1c[nH]c2ccccc12)C(=O)N1CCC[C@H]1C(=O)N[C@@H](Cc1c[nH]c2ccccc12)C(=O)N[C@@H](CC(=O)O)C(=O)N[C@@H](CC(=O)O)C(N)=O [ILPWDWPWWPWDD] |  |  | ≥ 100 |  | 
3 | CC[C@H](C)[C@H](NC(=O)[C@H](C)NC(=O)[C@@H](NC(=O)[C@@H](NC(=O)[C@H](CCCCN)NC(=O)CNC(=O)[C@H](CCCCN)NC(=O)[C@H](CC(=O)O)NC(=O)[C@H](CCCN=C(N)N)NC(=O)[C@@H](NC(=O)[C@@H](N)CO)[C@@H](C)CC)[C@@H](C)O)[C@@H](C)CC)C(=O)N[C@@H](CC(=O)O)C(=O)N[C@@H](CC(C)C)C(=O)N[C@@H](C)C(=O)N[C@@H](CCCCN)C(=O)N[C@@H](CO)C(=O)N[C@@H](C)C(=O)NCC(=O)N[C@H](C(=O)NCC(=O)N[C@H](C(=O)N[C@@H](CC(C)C)C(=O)N[C@@H](CCCCN)C(=O)N[C@H](C(=O)N[C@@H](CC(C)C)C(=O)N[C@@H](CCSC)C(=O)N[C@H]1CSSC[C@@H](C(=O)O)NC(=O)[C@H](CO)NC(=O)[C@H](CCCCN)NC(=O)[C@H](CC(=O)O)NC(=O)[C@H](CC(C)C)NC(=O)[C@H](CCCCN)NC1=O)[C@@H](C)O)C(C)C)[C@@H](C)O [SIRDKGKTIAIDLAKSAGTGVLKTLMCKLDKSC] | 2.89 (≈ 9.99 µg/mL) |  |  |  | MIC (Bacillus subtilis): 8.66 µM (≈ 30 µg/mL); MIC (Escherichia coli ML-35p): 2.89 µM (≈ 9.99 µg/mL); MIC [6]: 0.721 µM (≈ 2.5 µg/mL); MIC [7]: 0.721 µM (≈ 2.5 µg/mL); MIC [8]: 2.89 µM (≈ 9.99 µg/mL); MIC [9]: 2.89 µM (≈ 9.99 µg/mL)
4 | CC[C@H](C)[C@H](N)C(=O)N[C@H](C(=O)N[C@H](C(=O)N1CCC[C@H]1C(=O)N1CCC[C@H]1C(=O)N[C@H](C(=O)N[C@H](C(=O)N[C@@H](CCCCN)C(=O)N[C@@H](CC(=O)O)C(=O)N[C@H](C(=O)N[C@@H](CC(C)C)C(=O)N[C@@H](CCCCN)C(=O)N[C@@H](CCCCN)C(=O)N[C@@H](Cc1ccccc1)C(=O)N[C@@H](Cc1ccccc1)C(=O)N[C@@H](CCCCN)C(=O)NCC(=O)NCC(=O)N[C@H](C(=O)N[C@@H](C)C(=O)NCC(=O)N[C@H](C(=O)N[C@@H](CCSC)C(=O)NCC(=O)N[C@@H](CCCCN)C(=O)N[C@@H](CO)C(=O)N[C@@H](CCC(N)=O)C(=O)O)C(C)C)[C@@H](C)CC)[C@@H](C)O)[C@@H](C)CC)[C@@H](C)CC)[C@@H](C)CC)[C@@H](C)O [ITIPPIIKDTLKKFFKGGIAGVMGKSQ] |  | 40 (≈ 116 µg/mL) |  | ≥ 80 | 
5 | CC[C@H](C)[C@H](NC(=O)[C@H](C)NC(=O)[C@H](CCSC)NC(=O)[C@@H](NC(=O)[C@H](CCCCN)NC(=O)[C@@H](NC(=O)[C@H](CCCCN)NC(=O)[C@H](CC(=O)O)NC(=O)[C@H](CCCN=C(N)N)NC(=O)[C@@H](NC(=O)[C@@H](N)CO)[C@@H](C)CC)[C@@H](C)CC)[C@@H](C)O)C(=O)N[C@@H](CC(=O)O)C(=O)N[C@@H](CC(C)C)C(=O)N[C@@H](C)C(=O)N[C@@H](CCCCN)C(=O)N[C@@H](CO)C(=O)N[C@@H](C)C(=O)NCC(=O)N[C@H](C(=O)NCC(=O)N[C@H](C(=O)N[C@@H](CC(C)C)C(=O)N[C@@H](CCCCN)C(=O)N[C@H](C(=O)N[C@@H](CC(C)C)C(=O)N[C@H](C(=O)N[C@H]1CSSC[C@@H](C(=O)O)NC(=O)[C@H](CO)NC(=O)[C@H](CCCCN)NC(=O)[C@H](CC(=O)O)NC(=O)[C@H](CC(C)C)NC(=O)[C@H](CCCCN)NC1=O)[C@@H](C)CC)[C@@H](C)O)C(C)C)[C@@H](C)O [SIRDKIKTMAIDLAKSAGTGVLKTLICKLDKSC] | 2.84 (≈ 9.99 µg/mL) |  |  |  | MIC (Bacillus subtilis): 11.4 µM (≈ 40 µg/mL); MIC (Escherichia coli ML-35p): 2.84 µM (≈ 9.99 µg/mL); MIC [6]: 1.42 µM (≈ 5 µg/mL); MIC [7]: 1.42 µM (≈ 5 µg/mL); MIC [8]: 2.84 µM (≈ 9.99 µg/mL); MIC [9]: 4.26 µM (≈ 15 µg/mL)
6 | NC(=O)[C@H](CCCN=C(N)N)NC(=O)[C@H](CCCN=C(N)N)NC(=O)[C@H](Cc1c[nH]c2ccccc12)NC(=O)[C@@H]1CCCN1C(=O)[C@H](Cc1c[nH]c2ccccc12)NC(=O)[C@H](Cc1c[nH]c2ccccc12)NC(=O)[C@@H]1CCCN1C(=O)[C@@H](N)Cc1c[nH]c2ccccc12 [WPWWPWRR] |  |  | 1.6 (≈ 2.03 µg/mL) |  | 
7 | CC[C@H](C)[C@@H]1NC(=O)[C@H](C)NC(=O)[C@@H](NC(=O)[C@H](Cc2ccc(O)cc2)NC(=O)[C@H](C)NC(=O)[C@H](C)NC(=O)[C@@H]2CCCN2C(=O)[C@@H](NC(=O)[C@@H](NC(=O)[C@H](CCCCN)NC(=O)[C@@H](NC(=O)[C@H](C)NC(=O)[C@H](C)NC(=O)[C@H](CCCCN)NC(=O)[C@@H](NC(=O)[C@H](CC(C)C)NC(=O)CNC(=O)CNC(=O)[C@H](CCSC)NC(=O)[C@@H](N)Cc2ccccc2)[C@@H](C)CC)[C@@H](C)O)[C@@H](C)CC)C(C)C)CSSC[C@@H](C(=O)O)NC(=O)[C@H](CCCCN)NC(=O)[C@H](CCCCN)NC(=O)[C@H]([C@@H](C)O)NC1=O [FMGGLIKAATKIVPAAYCAITKKC] |  | 3.2 (≈ 7.99 µg/mL) |  | 25 (≈ 62.5 µg/mL) | 
8 | CC[C@H](C)[C@H](N)C(=O)N[C@@H](CC(C)C)C(=O)N1CCC[C@H]1C(=O)N[C@@H](Cc1c[nH]c2ccccc12)C(=O)N[C@@H](CCC(=O)O)C(=O)N[C@@H](Cc1c[nH]c2ccccc12)C(=O)N1CCC[C@H]1C(=O)N[C@@H](Cc1c[nH]c2ccccc12)C(=O)N[C@@H](Cc1c[nH]c2ccccc12)C(=O)N1CCC[C@H]1C(=O)N[C@@H](Cc1c[nH]c2ccccc12)C(=O)N[C@@H](CCC(=O)O)C(=O)N[C@@H](CCC(=O)O)C(N)=O [ILPWEWPWWPWEE] |  |  | ≥ 100 |  | 
9 | CC[C@H](C)[C@H](N)C(=O)N[C@@H](CC(C)C)C(=O)NCC(=O)N[C@@H](CCCCN)C(=O)N[C@@H](CC(C)C)C(=O)N[C@@H](CC(C)C)C(=O)N[C@@H](CO)C(=O)N[C@H](C(=O)N[C@@H](C)C(=O)N[C@@H](C)C(=O)N[C@@H](CCCCN)C(=O)N[C@@H](CC(C)C)C(=O)N[C@@H](CC(C)C)C(=O)N[C@@H](CO)C(=O)N[C@@H](CCCCN)C(=O)N[C@@H](CC(C)C)C(N)=O)[C@@H](C)O [ILGKLLSTAAKLLSKL] |  | 2 (≈ 3.34 µg/mL) |  | 16 (≈ 26.7 µg/mL) | 
10 | CC[C@H](C)[C@H](NC(=O)[C@H](CCCCN)NC(=O)[C@H](CCCCN)NC(=O)CNC(=O)[C@H](C)NC(=O)CNC(=O)[C@H](Cc1ccccc1)NC(=O)[C@@H](NC(=O)[C@H](CO)NC(=O)CNC(=O)[C@H](CC(C)C)NC(=O)[C@H](CC(C)C)NC(=O)CN)[C@@H](C)CC)C(=O)N[C@@H](C)C(=O)N[C@H]1CSSC[C@@H](C(=O)O)NC(=O)[C@H](CC(C)C)NC(=O)CNC(=O)[C@H](CO)NC(=O)[C@H](CC(C)C)NC(=O)[C@H](C)NC1=O [GLLGSIFGAGKKIACALSGLC] |  | 31.6 (≈ 62.4 µg/mL) |  | 15.7 (≈ 31 µg/mL) | 
